Results published in ChEMBL document CHEMBL3596148, “Meridianin derivatives as potent Dyrk1A inhibitors and neuroprotective agents” (Bioorg Med Chem Lett, 2015).

Legend:
[1] = molecular target: Insulin receptor (Homo sapiens) (UniProt P06213); assay: Inhibition of IR (unknown origin) at 0.5 uM relative to control
[2] = molecular target: Casein kinase I isoform alpha (Homo sapiens) (UniProt P48729); assay: Inhibition of CK1 (unknown origin) at 0.5 uM relative to control
[3] = molecular target: AMP-activated protein kinase, AMPK (Homo sapiens) (UniProt P54646+O43741+P54619+Q9UGJ0+Q9Y478+Q13131+Q9UGI9); assay: Inhibition of AMPK (unknown origin) at 0.5 uM relative to control; assay type: protein-complex assay
[4] = molecular target: Glycogen synthase kinase-3 beta (Homo sapiens) (UniProt P49841); assay: Inhibition of GSK3beta (unknown origin) at 0.5 uM relative to control
[5] = molecular target: Cyclin-dependent kinase 2 (Homo sapiens) (UniProt P24941); assay: Inhibition of CDK2 (unknown origin) at 0.5 uM relative to control
[6] = molecular target: T1, Aurora kinase A (Homo sapiens) (UniProt O14965); assay: Inhibition of Aurora A (unknown origin) at 0.5 uM relative to control
T1 sequence (whole entry): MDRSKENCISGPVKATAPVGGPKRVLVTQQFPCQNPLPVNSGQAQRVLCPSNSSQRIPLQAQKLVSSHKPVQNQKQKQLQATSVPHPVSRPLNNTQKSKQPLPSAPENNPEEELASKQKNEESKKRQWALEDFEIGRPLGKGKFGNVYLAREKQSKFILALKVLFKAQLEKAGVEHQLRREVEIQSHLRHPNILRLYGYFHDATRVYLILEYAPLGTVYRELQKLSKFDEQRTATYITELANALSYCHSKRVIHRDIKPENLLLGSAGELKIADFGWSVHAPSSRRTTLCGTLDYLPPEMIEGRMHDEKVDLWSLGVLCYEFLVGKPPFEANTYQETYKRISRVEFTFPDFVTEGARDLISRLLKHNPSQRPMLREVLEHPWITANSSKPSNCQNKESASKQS

SH-SY5Y = assay: Neuroprotective activity against glutamate-induced neurotoxicity in human SH-SY5Y cells assessed as cell viability at 10 uM incubated for 30 mins prior to glutamate challenge measured after 24 hrs by MTT assay (reference value: 73.8 +/- 4.5%); assay type: functional; details: read-out: Activity
[7] = molecular target: Aurora kinase B (Homo sapiens) (UniProt Q96GD4); assay: Inhibition of Aurora B (unknown origin) at 0.5 uM relative to control
[8] = molecular target: Insulin-like growth factor 1 receptor (Homo sapiens) (UniProt P08069); assay: Inhibition of IGF-1R (unknown origin) at 0.5 uM relative to control
[9] = molecular target: Tyrosine-protein kinase ABL1 (Homo sapiens) (UniProt P00519); assay: Inhibition of Abl (unknown origin) at 0.5 uM relative to control
[10] = molecular target: Dual specificity tyrosine-phosphorylation-regulated kinase 1A (Homo sapiens, UniProt Q13627); assay: Inhibition of Dyrk1A (unknown origin) using Woodtide as substrate after 30 mins by P81 membrane assay in presence of [33P]-g-ATP

Chain of Aurora kinase B (Homo sapiens) (Q96GD4 whole entry): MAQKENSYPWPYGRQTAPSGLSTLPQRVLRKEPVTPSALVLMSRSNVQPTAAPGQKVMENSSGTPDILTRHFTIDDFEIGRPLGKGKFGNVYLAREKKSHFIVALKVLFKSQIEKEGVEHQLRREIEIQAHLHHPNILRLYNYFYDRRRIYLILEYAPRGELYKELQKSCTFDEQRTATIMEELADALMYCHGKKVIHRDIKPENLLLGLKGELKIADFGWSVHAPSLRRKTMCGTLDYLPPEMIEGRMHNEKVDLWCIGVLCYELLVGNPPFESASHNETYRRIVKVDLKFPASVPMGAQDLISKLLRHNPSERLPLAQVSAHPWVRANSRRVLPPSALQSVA
Chain of Insulin receptor (Homo sapiens) (P06213 28-758 limits assumed): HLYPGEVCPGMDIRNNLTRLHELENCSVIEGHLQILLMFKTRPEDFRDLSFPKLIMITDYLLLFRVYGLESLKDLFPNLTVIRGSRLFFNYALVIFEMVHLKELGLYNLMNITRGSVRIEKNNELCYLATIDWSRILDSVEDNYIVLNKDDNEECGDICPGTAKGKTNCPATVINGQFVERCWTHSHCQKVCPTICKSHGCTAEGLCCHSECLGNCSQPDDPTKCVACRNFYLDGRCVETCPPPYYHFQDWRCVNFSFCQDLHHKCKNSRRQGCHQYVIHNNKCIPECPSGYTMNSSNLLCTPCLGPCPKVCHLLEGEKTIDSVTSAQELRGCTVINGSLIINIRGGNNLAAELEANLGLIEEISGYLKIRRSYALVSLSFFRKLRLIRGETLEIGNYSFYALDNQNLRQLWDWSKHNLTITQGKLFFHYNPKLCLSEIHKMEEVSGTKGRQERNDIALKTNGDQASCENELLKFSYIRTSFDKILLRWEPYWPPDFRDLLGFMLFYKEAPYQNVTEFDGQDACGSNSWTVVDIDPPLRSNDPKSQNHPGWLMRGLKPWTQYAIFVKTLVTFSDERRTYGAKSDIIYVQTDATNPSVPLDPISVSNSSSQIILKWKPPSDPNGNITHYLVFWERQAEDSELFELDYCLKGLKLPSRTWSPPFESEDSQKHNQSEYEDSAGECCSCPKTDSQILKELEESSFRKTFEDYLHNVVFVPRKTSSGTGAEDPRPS
Chain of Insulin receptor (Homo sapiens) (P06213 763-1382 limits assumed): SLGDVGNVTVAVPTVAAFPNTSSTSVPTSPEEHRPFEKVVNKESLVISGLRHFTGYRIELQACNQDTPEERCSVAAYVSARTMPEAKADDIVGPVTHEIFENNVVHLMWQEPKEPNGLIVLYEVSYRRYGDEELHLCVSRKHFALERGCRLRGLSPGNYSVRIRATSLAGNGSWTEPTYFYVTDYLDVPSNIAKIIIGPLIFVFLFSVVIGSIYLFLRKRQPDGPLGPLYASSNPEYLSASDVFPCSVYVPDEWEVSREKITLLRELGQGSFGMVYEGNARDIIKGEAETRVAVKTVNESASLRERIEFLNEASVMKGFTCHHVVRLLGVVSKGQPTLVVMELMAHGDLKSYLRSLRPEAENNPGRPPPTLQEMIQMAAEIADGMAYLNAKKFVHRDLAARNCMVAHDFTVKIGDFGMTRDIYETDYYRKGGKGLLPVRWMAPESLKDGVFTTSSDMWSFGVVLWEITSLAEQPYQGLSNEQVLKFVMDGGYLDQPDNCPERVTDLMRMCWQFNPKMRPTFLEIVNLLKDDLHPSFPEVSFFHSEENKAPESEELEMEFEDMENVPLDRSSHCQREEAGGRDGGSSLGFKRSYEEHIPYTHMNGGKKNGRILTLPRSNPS
Chain of Insulin-like growth factor 1 receptor (Homo sapiens) (P08069 31-736 limits assumed): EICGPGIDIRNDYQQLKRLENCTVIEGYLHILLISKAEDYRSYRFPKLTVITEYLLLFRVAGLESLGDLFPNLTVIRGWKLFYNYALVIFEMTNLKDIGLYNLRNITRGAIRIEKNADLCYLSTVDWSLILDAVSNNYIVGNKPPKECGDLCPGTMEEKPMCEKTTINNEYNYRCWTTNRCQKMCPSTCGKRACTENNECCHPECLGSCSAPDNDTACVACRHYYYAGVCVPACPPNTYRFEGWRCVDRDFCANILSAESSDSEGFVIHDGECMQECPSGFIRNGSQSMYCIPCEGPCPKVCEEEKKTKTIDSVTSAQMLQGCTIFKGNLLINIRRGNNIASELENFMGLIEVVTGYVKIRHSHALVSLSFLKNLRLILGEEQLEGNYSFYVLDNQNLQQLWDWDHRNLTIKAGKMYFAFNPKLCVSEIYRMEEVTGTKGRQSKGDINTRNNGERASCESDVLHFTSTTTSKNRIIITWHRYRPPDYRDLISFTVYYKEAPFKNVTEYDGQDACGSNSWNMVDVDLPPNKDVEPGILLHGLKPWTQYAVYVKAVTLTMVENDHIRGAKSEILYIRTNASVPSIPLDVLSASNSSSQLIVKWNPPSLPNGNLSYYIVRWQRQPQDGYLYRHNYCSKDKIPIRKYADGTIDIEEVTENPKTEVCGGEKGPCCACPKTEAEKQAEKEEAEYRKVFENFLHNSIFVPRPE
Chain of Insulin-like growth factor 1 receptor (Homo sapiens) (P08069 741-1367 limits assumed): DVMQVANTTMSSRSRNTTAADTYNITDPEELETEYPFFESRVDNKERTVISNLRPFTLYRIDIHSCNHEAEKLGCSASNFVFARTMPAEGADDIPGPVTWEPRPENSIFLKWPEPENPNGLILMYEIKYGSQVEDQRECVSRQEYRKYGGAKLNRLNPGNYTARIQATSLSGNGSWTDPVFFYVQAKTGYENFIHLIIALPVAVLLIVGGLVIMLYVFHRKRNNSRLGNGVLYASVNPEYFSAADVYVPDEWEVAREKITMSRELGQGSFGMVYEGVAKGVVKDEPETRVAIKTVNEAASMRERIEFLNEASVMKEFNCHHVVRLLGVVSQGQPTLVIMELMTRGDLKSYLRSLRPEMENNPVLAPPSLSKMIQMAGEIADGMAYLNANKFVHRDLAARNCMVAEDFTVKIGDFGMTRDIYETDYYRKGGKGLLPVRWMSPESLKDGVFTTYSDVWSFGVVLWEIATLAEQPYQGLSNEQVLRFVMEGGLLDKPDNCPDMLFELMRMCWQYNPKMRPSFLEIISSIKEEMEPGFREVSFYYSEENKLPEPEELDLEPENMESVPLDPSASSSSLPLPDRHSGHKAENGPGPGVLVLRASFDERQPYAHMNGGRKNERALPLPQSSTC
Chain of Glycogen synthase kinase-3 beta (Homo sapiens) (P49841 whole entry, looked up): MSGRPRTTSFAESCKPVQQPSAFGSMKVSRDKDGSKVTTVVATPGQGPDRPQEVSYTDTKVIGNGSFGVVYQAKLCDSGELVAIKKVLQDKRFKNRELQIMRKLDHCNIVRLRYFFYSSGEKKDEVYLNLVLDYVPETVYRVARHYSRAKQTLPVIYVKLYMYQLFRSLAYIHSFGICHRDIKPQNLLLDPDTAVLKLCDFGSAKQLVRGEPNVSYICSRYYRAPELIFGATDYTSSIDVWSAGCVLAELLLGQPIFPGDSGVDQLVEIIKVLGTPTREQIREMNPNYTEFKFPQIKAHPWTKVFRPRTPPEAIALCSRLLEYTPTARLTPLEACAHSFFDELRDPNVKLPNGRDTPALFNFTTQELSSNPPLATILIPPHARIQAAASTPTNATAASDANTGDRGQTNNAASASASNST
Chain of Tyrosine-protein kinase ABL1 (Homo sapiens) (P00519 whole entry): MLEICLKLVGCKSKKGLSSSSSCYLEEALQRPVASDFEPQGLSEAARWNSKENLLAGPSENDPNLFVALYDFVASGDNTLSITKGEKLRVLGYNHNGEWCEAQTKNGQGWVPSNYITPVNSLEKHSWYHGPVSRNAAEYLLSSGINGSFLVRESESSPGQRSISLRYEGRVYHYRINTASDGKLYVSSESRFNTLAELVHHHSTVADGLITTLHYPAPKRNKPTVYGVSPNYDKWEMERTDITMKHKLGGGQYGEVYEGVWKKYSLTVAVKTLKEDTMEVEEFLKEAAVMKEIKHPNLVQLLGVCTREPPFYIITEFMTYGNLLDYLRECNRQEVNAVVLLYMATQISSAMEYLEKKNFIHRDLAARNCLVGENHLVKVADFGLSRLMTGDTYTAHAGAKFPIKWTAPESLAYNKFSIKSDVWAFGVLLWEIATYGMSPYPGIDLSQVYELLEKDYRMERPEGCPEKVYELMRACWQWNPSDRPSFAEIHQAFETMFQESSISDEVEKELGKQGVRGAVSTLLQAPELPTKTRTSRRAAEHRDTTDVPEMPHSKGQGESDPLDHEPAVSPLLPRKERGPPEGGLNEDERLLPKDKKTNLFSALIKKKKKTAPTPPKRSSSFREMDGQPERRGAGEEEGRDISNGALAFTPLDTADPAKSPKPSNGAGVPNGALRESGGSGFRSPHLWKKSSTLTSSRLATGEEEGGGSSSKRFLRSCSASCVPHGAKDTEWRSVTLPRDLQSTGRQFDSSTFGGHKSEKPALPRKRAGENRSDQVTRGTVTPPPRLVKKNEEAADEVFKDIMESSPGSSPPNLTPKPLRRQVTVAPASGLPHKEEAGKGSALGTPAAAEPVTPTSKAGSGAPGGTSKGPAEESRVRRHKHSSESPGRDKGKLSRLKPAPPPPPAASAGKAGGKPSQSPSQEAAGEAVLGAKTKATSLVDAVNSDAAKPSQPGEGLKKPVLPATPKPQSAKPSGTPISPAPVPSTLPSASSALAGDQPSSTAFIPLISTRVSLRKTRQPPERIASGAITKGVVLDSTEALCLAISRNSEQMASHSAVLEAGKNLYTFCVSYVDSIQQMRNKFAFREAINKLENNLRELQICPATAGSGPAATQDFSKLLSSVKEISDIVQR
Chain of Casein kinase I isoform alpha (Homo sapiens) (P48729 2-337 limits assumed): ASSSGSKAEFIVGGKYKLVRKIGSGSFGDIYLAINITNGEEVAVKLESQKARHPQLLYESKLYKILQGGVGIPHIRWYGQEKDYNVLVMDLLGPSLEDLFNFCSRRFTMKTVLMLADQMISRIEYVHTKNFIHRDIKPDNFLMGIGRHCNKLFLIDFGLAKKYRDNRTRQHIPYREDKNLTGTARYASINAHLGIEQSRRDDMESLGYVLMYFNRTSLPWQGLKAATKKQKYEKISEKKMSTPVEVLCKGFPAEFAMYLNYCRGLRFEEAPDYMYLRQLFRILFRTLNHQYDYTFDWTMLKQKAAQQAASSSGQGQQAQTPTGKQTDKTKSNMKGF

inhibition [1]: 11.1%
inhibition [2]: 13.8%
inhibition [3]: 4.4%
inhibition [4]: 22.7%
inhibition [5]: 0%
inhibition [6]: 0%
inhibition [7]: 0%
inhibition [8]: 2.1%
inhibition [9]: 3%
IC50 [10]: 500 nM
Compound: Nc1nccc(-c2cn(C(=O)N3CCOCC3)c3ccc(Br)cc23)n1
viability at 10 µM (SH-SY5Y): 82.5%
